Test results from patent publication US20210355106A1, “NEW AMINO-PYRIMIDONYL-PIPERIDINYL DERIVATIVES, A PROCESS FOR THEIR PREPARATION AND PHARMACEUTICAL COMPOSITIONS CONTAINING THEM” (LES LABORATOIRES SERVIER, priority 2018, published 2021).

What was measured:
[1] = test system: Z138 mantle cell lymphoma tumour cell lines; experiment: In vitro cytotoxicity, MTT assay; format: cell-based; details: Homo sapiens, Z-138; Z138 cells, exposed to the test compounds for 96 hours
How it was run: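 MTT viability read-out: after 96 hours of compound treatment, Z138 mantle cell lymphoma cells received MTT for 4 hours, and formazan production was quantified by absorbance at 540 nm.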

USP7 = molecular target: T1, USP7 (Homo sapiens, UniProt Q93009, C315A); experiment: Inhibition of USP7 by Fluorescence Intensity (FLINT) readings, Ubiquitin-Rhodamine-110 substrate; format: biochemical; details: 0.25 nM His-His-USP7 (aa208-560), 60 minutes at 30° C. preincubation; Ki determined from IC50 according to Cer et al.
T1 construct: 0.25 nM His-His-USP7 (aa208-560, |C315A|) was incubated with compound; His-His (N)
How it was run: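 Kinetic rate of Rhodamine-110 release from ubiquitin substrate (50 nM or 4 μM), read every 3 min for 21 min, after 60 min, 30 °C preincubation of 0.25 nM USP7 catalytic domain C315A with compound. Bicine pH 8.0 buffer, 10% DMSO; 11-point IC50 vs DMSO and no-enzyme controls, converted to Ki.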

T1 sequence (Q93009 208-560 C315A): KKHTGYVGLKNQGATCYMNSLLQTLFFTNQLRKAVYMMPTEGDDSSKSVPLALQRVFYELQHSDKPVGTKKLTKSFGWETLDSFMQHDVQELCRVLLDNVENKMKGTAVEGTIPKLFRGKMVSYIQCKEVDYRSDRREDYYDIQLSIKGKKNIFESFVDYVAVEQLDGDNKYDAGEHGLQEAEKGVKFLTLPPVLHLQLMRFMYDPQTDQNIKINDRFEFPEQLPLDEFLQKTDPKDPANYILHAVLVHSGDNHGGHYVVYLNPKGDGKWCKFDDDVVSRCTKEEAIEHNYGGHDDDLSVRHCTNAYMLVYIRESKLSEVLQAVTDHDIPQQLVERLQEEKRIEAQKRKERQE

Question: Which IC50 [1] does the source give for Nc1c(Oc2ccc(F)cc2)ncn(C[C@@]2(O)CCN(C(=O)[C@@H]3CCN(Cc4cnccn4)C[C@H]3c3ccccc3)CC2(F)F)c1=O [Example 202, 5-amino-3-[[(4S)-3,3-difluoro-4-hydroxy-1-[(3R,4R)-3-phenyl-1-(pyrazin-2-ylmethyl)piperidine-4-carbonyl]-4-piperidyl]methyl]-6-(4-fluorophenoxy)pyrimidin-4-one] here?
Answer: Its IC50 is 0.0117 µM.

Question: What about the Ki (USP7) of the same compound?
Answer: Its Ki is 0.0218 µM.

Question: Which results are given for Cc1nc(N2CCOCC2)sc1C(=O)N1CC[C@@H](C(=O)N2CCC(O)(Cn3cnc(Oc4ccc(F)cc4)c(N)c3=O)CC2)[C@H](c2ccccc2)C1 [Example 64, 5-amino-6-(4-fluorophenoxy)-3-[(4-hydroxy-1-{(3R,4R)-1-[4-methyl-2-(morpholin-4-yl)-1,3-thiazole-5-carbonyl]-3-phenylpiperidine-4-carbonyl)piperidin-4-yl)methyl]pyrimidin-4(3H)-one]?
Answer: IC50 [1]: 0.00839 µM; Ki (USP7): 0.0064 µM

Question: Which results are given for Cc1cc(C(=O)N2CC[C@@H](C(=O)N3CCC(O)(Cn4cnc(Oc5ccc(F)cc5)c(N)c4=O)CC3)[C@H](c3ccccc3)C2)ccn1 [Example 91, 5-amino-6-(4-fluorophenoxy)-3-[[4-hydroxy-1-[(3R,4R)-1-(2-methylpyridine-4-carbonyl)-3-phenyl-piperidine-4-carbonyl]4-piperidyl]methyl]pyrimidin-4-one]?
Answer: IC50 [1]: 0.076 µM; Ki (USP7): 0.013 µM

Question: What does the source list for COc1cc(Oc2ncn(CC3(O)CCN(C(=O)[C@@H]4CCN(C(=O)c5sc(-c6ccc(C)nc6)nc5C)C[C@H]4c4ccccc4)CC3)c(=O)c2N)ccc1F [Example 25]?
Answer: IC50 [1]: 0.0023 µM; Ki (USP7): 0.0029 µM

Question: How did the IC50 [1] turn out when Cc1cncc(CN2CC[C@@H](C(=O)N3CC[C@](O)(Cn4cnc(Oc5ccc(F)cc5)c(N)c4=O)C(F)(F)C3)[C@H](c3ccccc3)C2)n1 [Example 207, 5-amino-3-[[(4S)-3,3-difluoro-4-hydroxy-1-[(3R,4R)-1-[(6-methylpyrazin-2-yl)methyl]-3-phenyl-piperidine-4-carbonyl]-4-piperidyl]methyl]-6-(4-fluorophenoxy)pyrimidin-4-one] was run?
Answer: Its IC50 is 0.0118 µM.

Question: And the Ki (USP7)?
Answer: The Ki was 0.0274 µM.

Question: With Cc1nc(C2CCCC2)sc1C(=O)N1CC[C@@H](C(=O)N2CCC(O)(Cn3cnc(Oc4ccc(F)cc4)c(N)c3=O)CC2)[C@H](c2ccccc2)C1 [Example 161, 5-amino-3-[[1-[(3R,4R)-1-(2-cyclopentyl-4-methyl-thiazole-5-carbonyl)-3-phenyl-piperidine-4-carbonyl]-4-hydroxy-4-piperidyl]methyl]-6-(4-fluorophenoxy)pyrimidin-4-one] as the compound, how does the IC50 [1] read?
Answer: The IC50 was 0.00363 µM.

Question: And the Ki (USP7)?
Answer: The Ki was 0.0101 µM.

Question: What does the source list for Cc1ccc(-c2ncc(CN3CC[C@@H](C(=O)N4CCC(O)(Cn5cnc(Oc6ccc(F)cc6)c(N)c5=O)CC4)[C@H](c4ccccc4)C3)s2)cn1 [Example 51, 5-amino-6-(4-fluorophenoxy)-3-({4-hydroxy-1-[(3R,4R)-1-{{2-(6-methylpyridin-3 yl)-1,3-thiazol-5-yl]methyl}-3-phenylpiperidine-4-carbonyl]piperidin-4-yl}methyl)pyrimidin-4(3H)-one]?
Answer: IC50 [1]: 0.0014 µM; Ki (USP7): 0.0026 µM

Question: For COc1cc(Oc2ncn(C[C@@]3(O)CCN(C(=O)[C@@H]4CCN(Cc5cnccn5)C[C@H]4c4ccccc4)CC3(F)F)c(=O)c2N)ccc1F [Example 213, 5-amino-3-[[(4S)-3,3-difluoro-4-hydroxy-1-[(3R,4R)-3-phenyl-1-(pyrazin-2-ylmethyl)piperidine-4-carbonyl]-4-piperidyl]methyl]-6-(4-fluoro-3-methoxy-phenoxy)pyrimidin-4-one], which IC50 [1] is on record?
Answer: The IC50 was 0.0156 µM.

Question: And the Ki (USP7)?
Answer: Its Ki is 0.0364 µM.

Question: For Cc1ccc(-c2cccc(S(=O)(=O)N3CC[C@@H](C(=O)N4CCC(O)(Cn5cnc(Oc6ccc(F)cc6)c(N)c5=O)CC4)[C@H](c4ccccc4)C3)c2)cn1 [Example 159, 5-amino-6-(4-fluorophenoxy)-3-[[4-hydroxy-1-[(3R,4R)-1-[3-(6-methyl-3-pyridyl)phenyl]sulfonyl-3-phenyl-piperidine-4-carbonyl]-4-piperidyl]methyl]pyrimidin-4-one], which IC50 [1] is on record?
Answer: The IC50 was 0.00818 µM.

Question: What about the Ki (USP7) of the same compound?
Answer: Its Ki is 0.0222 µM.
